“Also recorded” adds a separate entry of the source. Where two headings read alike, the source gives them in different places.
Tests used:
mu opioid receptor = mu opioid receptor (Homo sapiens, UniProt P35372); conditions: Alvimopan compared with methylnaltrexone; as characterized by Adolor Corporation; cited from earlier work
[1] = white crystalline powder as provided; cited from earlier work
[2] = test system: human segmental colectomy patients; assay: Phase 2 randomized, double-blind, placebo-controlled study of IV MNTX after segmental colectomy; format: in vivo
Excerpt: The following non-limiting examples relate to a phase 2 human study using MNTX to reduce the duration of gastrointestinal dysfunction following segmental colectomy. The primary objective of this study was to assess the activity of parenterally administered MNTX every six hours compared with placebo in shortening the duration of or preventing post-operative ileus in patients who have undergone segmental colectomies. Evidence of activity of MNTX was based on at least one or more of the following: the time to tolerance of liquids, time to first bowel movement, time to tolerance of solid foods, time to the combination of first solid meal and bowel movement, time to first micturition post foley catheter removal, and time to hospital discharge. The use of daily anti-emetic and opioid medication was also assessed.
A total of 65 patients at eight surgical centers participated in the phase 2 randomized, double-blind, placebo-controlled study. Subjects underwent segmental colectomies primarily due to cancer or diverticular disease. Shortly after surgery (90 minutes post surgery), study medication (0.3 mg/kg MNTX or placebo) was administered intravenously at six-hour intervals for a maximum of seven days.
The study was a double-blind, randomized parallel group study designed to evaluate the safety and activity of IV (intravenous) MNTX in the treatment of patients who are undergoing segmental colectomies via laparotomy and the duration of their post-operative ileus. Patients were randomized to either placebo (saline) or a fixed dose of IV MNTX of 0.30 mg/kg patient body weight in 50 cc of 0.9% normal saline hung as an IV piggyback (IVPB) to the main line and infused over twenty (20) minutes every six (6) hours until twenty-four (24) hours after the patient could tolerate solid foods, until discharged from the hospital, or for a maximum of seven (7) days. These time points for study drug discontinuation were selected in order to analyze the secondary efficacy endpoints of IV MNTX as well as the primary endpoints.
Day of Surgery. Within twenty-four (24) hours of surgery, patients were randomly assigned to either the MNTX 0.30 mg/kg or placebo (saline) dose group.
Prior to the first study drug administration the patient's vital signs were monitored. Patients were asked to assess their level of nausea, abdominal cramping, pain, and itching based on a verbal numerical scale. Within 90 minutes from the end of the surgical procedure, defined as the surgical end time recorded on the operating room (OR) sheet (regardless of whether a patient was in the PACU or not) the first dose of study drug was administered intravenously through an already existing IV line, hung as an IV piggyback (IVPB) to the main line, over 20 minutes. If the IV line was being used for other medications, i.e. antibiotics, electrolyte supplements, etc., the line was flushed with 20 cc of the main IV fluid prior to the hanging of study product. The patient's vital signs were monitored at the end of the study medication infusion, 20 min, 60 min, 120 min and 180 minutes after this first IV study drug administration. Patients were asked to assess their level of nausea, abdominal cramping, pain, and itching based on a verbal numerical scale and whether or not they had vomited 60 minutes after the end of the first study drug administration.
Inability to tolerate clear liquids was defined as nausea and/or vomiting within the first 60 minutes of the challenge.
The patient's diet was advanced to full liquids (≧500 cc of liquid) at the meal following the patient's tolerance of their first 30 cc of water by mouth. The patient's diet was then advanced to solid foods at the meal following their tolerance of full liquids. Tolerance of full liquids was defined as no clinically significant nausea and no vomiting within the first hour of the conclusion of the full liquids. […]

rat = conditions: cited from earlier work
[3] = test system: human patients, abdominal surgery; conditions: 6 mg and 12 mg oral doses, started at least two hours prior to abdominal surgery; cited from earlier work
[4] = segmental colectomy patients, MNTX 0.30 mg/kg IV every 6 hours, on average
[5] = segmental colectomy patients, on average
[6] = sigmoidectomy patients, MNTX IV after surgery, on average

Chain of mu opioid receptor (P35372 whole entry, species assumed): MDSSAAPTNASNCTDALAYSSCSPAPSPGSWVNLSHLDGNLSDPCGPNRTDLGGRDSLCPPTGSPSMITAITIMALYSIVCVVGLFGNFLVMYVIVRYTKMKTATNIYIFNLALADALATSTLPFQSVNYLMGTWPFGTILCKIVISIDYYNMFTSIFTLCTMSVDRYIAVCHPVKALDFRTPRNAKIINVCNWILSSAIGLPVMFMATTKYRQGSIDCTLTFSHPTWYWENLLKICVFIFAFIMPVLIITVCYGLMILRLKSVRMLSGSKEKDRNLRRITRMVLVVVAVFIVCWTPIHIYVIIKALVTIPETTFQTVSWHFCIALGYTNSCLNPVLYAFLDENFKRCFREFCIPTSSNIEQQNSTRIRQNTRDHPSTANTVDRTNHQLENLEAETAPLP

Row | Compound | Affinity for mu opioid receptor, relative (mu opioid receptor) | Solubility in water [1] | Time to first bowel movement ([2]; segmental colectomy patients, MNTX 0.30 mg/kg IV every 6 hours started after surgery, on average) | Time to actual discharge [2, 4] | Time to discharge eligibility [2, 4] | Time to first flatus [2, 4] | Time to first full liquid diet [2, 4] | Time to first solid meal [2, 4] | Time to first solid meal and bowel movement (solids in-solids out) [2, 4] | Time to first use of an anti-emetic [2, 4] | Time to first anti-emetic use, delayed relative to absence of drug [2, 5] | Time to first flatus, accelerated relative to absence of drug [2, 5] | Time to first solid meal ([2]; sigmoidectomy patients, MNTX IV after surgery) | Time to actual discharge [2, 6] [h] | Time to discharge eligibility [2, 6] | Time to first bowel movement [2, 6] | Time to first flatus [2, 6] | Recovery of gastrointestinal transit (rat; MNTX intravenously 90 minutes before surgery) | Recovery of gastrointestinal transit (rat; MNTX intravenously closer to surgery (60 minutes or 45 minutes before surgery)) | Outcome of phase III human studies on post-operative gastrointestinal dysfunction end-points [3]
1 | C[N+]1(CC2CC2)CC[C@]23c4c5ccc(O)c4O[C@H]2C(=O)CC[C@@]3(O)[C@H]1C5 (stereo partly drawn) [MNTX, N-cyclopropylmethylnoroxy-morphine-methobromide] | lower mu opioid receptor affinity than Alvimopan | freely soluble in water | about 97 hours | about 140 hours | about 119 hours | about 88 hours | about 70 hours | about 100 hours | about 124 hours | about 26 hours | about 10 hours | about 8 hours | about 93 hours | ≤ 125 | about 105 hours | about 94 hours | about 85 hours | signs of partial recovery of gastrointestinal transit | not | –
2 | C[C@H]1CN(C[C@H](Cc2ccccc2)C(=O)NCC(=O)O)CC[C@@]1(C)c1cccc(O)c1 [Alvimopan] | greater affinity and selectivity than methylnaltrexone | – | – | – | – | – | – | – | – | – | – | – | – | – | – | – | – | – | – | inconsistent results that lacked statistical significance for many of the end-points; also recorded: inconsistent and lack statistical significance with respect to many of the end-points
